Test results from patent US20220142957A1, “TERPENE BASED THERAPEUTIC DEEP EUTECTIC SYSTEM, METHOD OF OBTAINING AND USES THEREOF” (priority 2019, published 2022).

What was measured:
HT29 cells [1] = assay: Antiproliferative assay in HT29 cells (MTS); assay type: cell-based, human; settings: 24 hours, mean ± SD
Description: In one embodiment, human Caco-2 and HT29 cell lines were obtained from Deutsche Sammlung von Mikroorganismen and Zellkulturen (DSMZ, Germany) and American Type Culture Collection (ATCC, USA), respectively. These cell lines were cultured in RPMI 1640 medium supplemented with 10% of heat-inactivated Fetal Bovine Serum (FBS). […] Cells were maintained at 37° C. with 5% CO2 in a humidified incubator and routinely grown as a monolayer in 75 cm^2 culture flasks. The cell culture medium and supplements were purchased from Invitrogen (Gibco, Invitrogen Corporation, UK). In one embodiment, the antiproliferative effect of […] and standard compounds was evaluated in HT29 cells. Briefly, cells were seeded at a density of 1×10^4 cells/well in 96-well culture plates. […] Cells incubated only with culture medium were considered as control. Cell proliferation was measured after 24 hours using MTS reagent, as mentioned above. Results were expressed in terms of percentage of living cells relative to the control. At least three independent experiments were performed in triplicate. In one embodiment, all data were expressed as mean±Standard Deviation (SD).

[2] = Cytotoxicity assay in confluent, non-differentiated Caco-2 cells (MTS); assay type: cell-based, human; settings: human, confluent, non-differentiated Caco-2 cells, isolated compounds, mean ± SD
Description: (§1) The cell culture medium and supplements were purchased from Invitrogen (Gibco, Invitrogen Corporation, UK).
(§2) Cells incubated only with culture medium were considered as control. […] At least three independent experiments were performed in triplicate.
(§3) A p-value<0.05 was considered statistically significant.

HT29 cells [3] = assay: Cell cycle assessment by flow cytometry (propidium iodide); settings: 24 hours, non-cytotoxic concentrations (FIG. 5A)
HT29 cells [4] = assay: Apoptosis by caspase-3 activity (NucView488/MitoView633); assay type: cell-based, human; settings: 2 mM, 24 hours (FIG. 5B)
Description: In one embodiment, apoptosis was evaluated by caspase-3 activity using NucView488™ and MitoView633™ Apoptosis Assay Kit (Biotium, USA) that allows staining of living cells by a far-red fluorescent dye MitoView633™ and the intracellular caspase-3/7 activity and cells nuclei morphological changes by bright green fluorescent dye NucView488™. […] Staining was performed with 200 μL/well of culture medium containing 1 μL of NucView488™ and 1 μL of MitoView633™ for 2 hours. Cells were observed under fluorescence microscope (Leica DM6000, Germany) and image analysis performed using ImageJ software.

Caco-2 cells = assay: Cytotoxicity assay in confluent, non-differentiated Caco-2 cells (MTS); assay type: cell-based, human; settings: isolated compounds, 24 hours, mean ± SD
Description: as §1, §2, §3

With CCCCCCCCCC(=O)O [CA, Capric acid] the EC50 (HT29 cells [1]; Homo sapiens, HT-29, isolated compounds) was 341 ± 81 µM and the EC50 at 24 h [2] was 1330 ± 223 µM.
With CC(C)Cc1ccc(C(C)C(=O)O)cc1 (stereo not shown) [IBU, Ibuprofen] the “effect on cell cycle” value (HT29 cells [3]) was “promoted cell cycle arrest in G1-phase”.
With S-Limonene the “effect on cell cycle” value (HT29 cells [3]) was “promoted cell cycle arrest in G1-phase”, the EC50 (HT29 cells [1]; isolated compounds) was 661 ± 25 µM and the “induction of apoptosis via caspase-3 activity” value (HT29 cells [4]) was “capable of inducing apoptosis via caspase-3 activity”. For the same compound, the EC50 (Caco-2 cells) was 2640 ± 108 µM.
